How the values were obtained:
JAK3 = target: T1, JAK3 (Homo sapiens, UniProt P52333); test: JAK/TYK2 assay (Kinase Glo luminescence): Jak3 kinase assay; type: biochemical; conditions: 1.5 nM enzyme, 2 uM ATP, 4 uM pEY, 1 hr; read-out: Jak3 kinase assay: IC50 Geomean
T1 sequence (P52333 1-1124): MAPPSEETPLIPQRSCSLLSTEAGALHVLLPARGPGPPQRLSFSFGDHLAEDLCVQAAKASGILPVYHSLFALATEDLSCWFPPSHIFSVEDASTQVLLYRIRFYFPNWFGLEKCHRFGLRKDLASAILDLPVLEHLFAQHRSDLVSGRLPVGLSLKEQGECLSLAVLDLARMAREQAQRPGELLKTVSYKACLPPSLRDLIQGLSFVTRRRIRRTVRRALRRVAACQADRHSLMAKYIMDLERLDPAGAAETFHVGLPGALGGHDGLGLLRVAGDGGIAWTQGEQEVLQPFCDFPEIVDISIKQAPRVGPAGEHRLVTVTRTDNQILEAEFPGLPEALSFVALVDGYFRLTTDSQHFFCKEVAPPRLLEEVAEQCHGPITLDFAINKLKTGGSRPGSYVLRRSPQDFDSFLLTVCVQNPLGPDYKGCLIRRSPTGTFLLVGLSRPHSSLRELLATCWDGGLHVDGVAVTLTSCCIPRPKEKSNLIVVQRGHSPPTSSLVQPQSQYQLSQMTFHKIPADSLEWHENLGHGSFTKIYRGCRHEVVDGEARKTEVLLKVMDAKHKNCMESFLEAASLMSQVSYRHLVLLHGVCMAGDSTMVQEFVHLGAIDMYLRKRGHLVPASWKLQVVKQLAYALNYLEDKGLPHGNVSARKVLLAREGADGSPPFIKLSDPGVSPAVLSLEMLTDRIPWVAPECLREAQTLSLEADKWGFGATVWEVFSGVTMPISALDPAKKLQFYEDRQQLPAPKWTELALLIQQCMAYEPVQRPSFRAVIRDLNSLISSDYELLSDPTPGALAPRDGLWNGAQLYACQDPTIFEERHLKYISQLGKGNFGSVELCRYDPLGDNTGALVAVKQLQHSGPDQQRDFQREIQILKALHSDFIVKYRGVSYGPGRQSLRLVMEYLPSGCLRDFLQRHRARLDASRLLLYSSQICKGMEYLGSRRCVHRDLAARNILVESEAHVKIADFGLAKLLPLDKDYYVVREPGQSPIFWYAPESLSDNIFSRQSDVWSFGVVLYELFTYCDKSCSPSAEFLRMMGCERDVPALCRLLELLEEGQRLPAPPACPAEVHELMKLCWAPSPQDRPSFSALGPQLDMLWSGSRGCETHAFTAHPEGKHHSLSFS
Experimental: (§1) Example A: JAK/TYK2 Assay 10 mM test compound stock or 1 mM control compound stock (tofocitinib, ruxolitinib or staurosporine) in DMSO was diluted to 0.4 mM in DMSO. A 3-fold series dilution was then performed in DMSO to generate 10 different compound concentrations. The assay was carried out in 384-well white plate. 0.5 μL of 40× compound DMSO solution at different concentrations was mixed with 10 uL 2× enzyme prepared in reaction buffer (20 mM HEPES, 10 mM MgCl2, 0.01% Tween, 1 mM DTT, pH 7.5). 10 uL 2× substrate mixture prepared in reaction buffer was then added to start the reaction. A short spin was done to settle down all solutions to the bottom of the plate. Final concentrations of test compound in the reaction mixture were 10000, 3333, 1111, 370, 123, 41.2, 13.7, 4.57, 1.52 and 0.51 nM, Concentrations of control compound were ten times less. Enzymatic reaction was conducted at 25° C. for 1-2 hours. 10 uL of Kinase Glo Reagents was added to stop the reaction and generate the luminescent signal which was measured using Envision. Luminescence signal was inversely related to kinase activity. […] The mixture without any compound was the positive control. [table]

JAK2 = JAK2 (Homo sapiens, UniProt O60674); test: JAK/TYK2 assay (Kinase Glo luminescence): Jak2 kinase assay; type: biochemical; conditions: 0.8 nM enzyme, 2 uM ATP, 4 uM pEY, 1 hr; read-out: Jak2 kinase assay: IC50 Geomean
Sequence of JAK2 (O60674 whole entry, species assumed): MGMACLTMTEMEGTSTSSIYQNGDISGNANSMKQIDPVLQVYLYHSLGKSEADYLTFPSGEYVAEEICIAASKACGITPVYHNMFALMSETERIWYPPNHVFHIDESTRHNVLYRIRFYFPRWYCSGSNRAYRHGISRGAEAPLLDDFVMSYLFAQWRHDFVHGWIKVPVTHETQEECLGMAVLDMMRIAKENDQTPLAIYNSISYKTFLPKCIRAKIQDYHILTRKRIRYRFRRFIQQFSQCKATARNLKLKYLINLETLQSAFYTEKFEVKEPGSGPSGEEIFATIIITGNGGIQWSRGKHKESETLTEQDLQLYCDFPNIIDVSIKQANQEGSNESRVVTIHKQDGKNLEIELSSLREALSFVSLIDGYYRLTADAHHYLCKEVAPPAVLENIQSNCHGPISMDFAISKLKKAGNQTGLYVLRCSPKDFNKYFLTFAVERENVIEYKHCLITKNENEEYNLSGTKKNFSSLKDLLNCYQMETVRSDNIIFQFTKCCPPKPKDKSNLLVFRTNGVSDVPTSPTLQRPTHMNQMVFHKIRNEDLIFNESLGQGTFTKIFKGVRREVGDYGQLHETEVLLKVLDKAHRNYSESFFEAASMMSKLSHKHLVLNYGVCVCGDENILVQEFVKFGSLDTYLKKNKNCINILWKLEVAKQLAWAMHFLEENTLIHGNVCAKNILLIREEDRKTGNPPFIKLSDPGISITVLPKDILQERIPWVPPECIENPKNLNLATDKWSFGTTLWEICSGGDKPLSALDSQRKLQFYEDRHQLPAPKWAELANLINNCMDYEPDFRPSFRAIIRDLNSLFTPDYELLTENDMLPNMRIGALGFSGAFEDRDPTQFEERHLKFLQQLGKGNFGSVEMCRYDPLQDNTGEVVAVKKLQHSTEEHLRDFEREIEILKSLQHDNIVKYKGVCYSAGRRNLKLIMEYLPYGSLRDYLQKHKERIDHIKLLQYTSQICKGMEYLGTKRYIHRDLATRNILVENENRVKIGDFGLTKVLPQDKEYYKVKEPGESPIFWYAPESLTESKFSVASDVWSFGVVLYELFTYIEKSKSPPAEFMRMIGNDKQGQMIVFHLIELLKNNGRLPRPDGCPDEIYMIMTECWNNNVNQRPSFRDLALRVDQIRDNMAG
Experimental: as §1

For `CCC(CC)Cn1ccc2cnc(Nc3cnn(CC(N)=O)c3)nc21` [Example 7, 2-(4-((7-(2-ethylbutyl)-7H-pyrrolo[2,3-d]pyrimidin-2-yl)amino)-1H-pyrazol-1-yl) acetamide], the IC50 (JAK3) was < 100 nM and the IC50 (JAK2) was < 100 nM.

For `CC[C@H](Cn1ccc2cnc(Nc3cnn(CC(N)=O)c3)nc21)C(C)C` [Example 1, (S)-2-(4-((7-(2-ethyl-3-methylbutyl)-7H-pyrrolo[2,3-d]pyrimidin-2-yl)amino)-1H-pyrazol-1-yl) acetamide], the IC50 (JAK3) was < 100 nM and the IC50 (JAK2) was < 100 nM.

In the case of `CC[C@H](Cn1ccc2cnc(Nc3cnn(CC(=O)N4CCOC4=O)c3)nc21)C(C)C` [Example 3, (5)-3-(2-(4-((7-(2-ethyl-3-methylbutyl)-7H-pyrrolo[2,3-d]pyrimidin-2-yl)amino)-1H-pyrazol-1-yl)acetyl) oxazolidin-2-one], the IC50 (JAK3) is reported as < 100 nM and the IC50 (JAK2) is reported as < 100 nM.

With `CC[C@@H](Cn1ccc2cnc(Nc3cnn(C4CCNC4=O)c3)nc21)C(C)C` (some centres unmarked) [Example 8] the IC50 (JAK3) was < 100 nM and the IC50 (JAK2) was < 100 nM.

Source: patent US20230024521A1, “JAK INHIBITORS” (Vimalan Biosciences, Inc., priority 2019, published 2023)
